Assay results from ChEMBL document CHEMBL4673332, “Neuroprotective and Anti-inflammatory Ditetrahydrofuran-Containing Diarylheptanoids from Tacca chantrieri” (J Nat Prod, 2020).

Legend:
BV-2 [1] = experiment: Cytotoxicity against mouse BV-2 cells assessed as reduction cell viability at 10 uM after 24 hrs by MTT assay; format: cell-based; settings: bv-2, 24 h
BV-2 [2] = experiment: Antiinflammatory activity against LPS-induced mouse BV-2 cells assessed NO production at 10 uM preincubated for 2 hrs followed by LPS-stimulation and measured after 24 hrs by Greiss reagent based assay relative to control; format: functional; settings: time 26 hrs
BV-2 [3] = experiment: Antiinflammatory activity against LPS-induced mouse BV-2 cells assessed NO production at 1 uM preincubated for 2 hrs followed by LPS-stimulation and measured after 24 hrs by Greiss reagent based assay relative to control; format: functional; settings: time 26 hrs
SH-SY5Y [4] = experiment: Neuroprotective activity in human SH-SY5Y cells assessed as reduction in amyloid beta (25 to 35)-induced cytotoxicity by measuring cell viability at 10 uM after 24 hrs by MTT assay relative to control; format: functional
SH-SY5Y [5] = experiment: Cytotoxicity against human SH-SY5Y cells assessed as reduction cell viability at 1 to 10 uM after 24 hrs by MTT assay; format: cell-based; settings: dose 1-10 µM
SH-SY5Y [6] = experiment: Neuroprotective activity in human SH-SY5Y cells assessed as reduction in amyloid beta (25 to 35)-induced cytotoxicity by measuring cell viability at 1 uM after 24 hrs by MTT assay relative to control; format: functional
[7] = Cytotoxicity against mouse BV-2 cells assessed as cell viability at 10 uM after 24 hrs by MTT assay relative to control; format: cell-based; settings: read-out: Activity

SMILES | Activity (BV-2 [1]) | Activity (BV-2 [2]) | Activity (BV-2 [3]) | Activity (SH-SY5Y [4]) | Activity (SH-SY5Y [5]) | Activity (SH-SY5Y [6]) | viability at 24 h, 10 µM [7]
COc1cc(CC[C@@H](O)C[C@H](O)CCc2ccc(O)cc2)ccc1O | Non-Toxic | 85.7% | 99.4% |  |  |  | 
O=C(O[C@@H]1Cc2c(O)cc(O)cc2O[C@@H]1c1cc(O)c(O)c(O)c1)c1cc(O)c(O)c(O)c1 [EPIGALOCATECHIN GALLATE] |  |  |  | 80.8% |  |  | 
COc1cc(/C=C/C=C/C(=O)CCc2ccc(O)cc2)cc(OC)c1O | Non-Toxic | 77.4% | 96.8% | 81.3% | Non-Toxic | 66.1% | 
COc1cc(CC[C@@H](O)C[C@H](O)CCc2ccc(O)c(OC)c2)ccc1O | Non-Toxic | 84.3% | 101.2% |  |  |  | 
Oc1ccc2cc1Oc1ccc(cc1)CC[C@H](O)C[C@@H](O)CC2 (relative stereo) | Non-Toxic | 84.6% | 98.8% |  |  |  | 
Oc1ccc(CC[C@@H](O)C[C@H](O)CCc2ccc(O)cc2)cc1 [(+)-HANNOKINOL] | Non-Toxic | 94.8% | 101.9% |  |  |  | 
COc1cc([C@@H]2O[C@@H](CC(=O)CCc3ccc(O)cc3)[C@@H]3[C@H]2[C@H](CC(=O)CCc2ccc(O)cc2)O[C@H]3c2ccc(O)c(OC)c2)ccc1O |  | 85% | 101.4% | 76.3% | Non-Toxic | 69% | < 70%
Oc1ccc(/C=C/c2cc(O)cc(O)c2)cc1 [RESVERATROL] |  |  | 67.5% |  |  |  | 
COc1cc([C@@H]2O[C@@H](CC(=O)CCc3ccc(O)cc3)[C@@H]3[C@H]2[C@H](CC(=O)CCc2ccc(O)cc2)O[C@H]3c2ccc(O)cc2)ccc1O | Non-Toxic | 86.8% | 99.6% | 91.9% | Non-Toxic | 69.6% | 
O=C(CCc1ccc(O)cc1)C[C@@H]1O[C@@H](c2ccc(O)cc2)[C@H]2[C@@H]1[C@H](c1ccc(O)cc1)O[C@H]2CC(=O)CCc1ccc(O)cc1 |  | 87.8% | 100.9% | 70.9% |  | 70.7% | < 70%
